Source: US9144569B2, “Methods of administering an aromatase inhibitor, prostaglandin and GnRH for regulating ovulation in cattle” (UNIVERSITY OF SASKATCHEWAN, priority 2010, dated 2015)

Experiments:
[1] = tested on: Hereford-cross beef heifers; assay: Example II: computer-assisted ultrasound image analysis of CL and dominant follicle; assay type: in vivo, cattle
Experimental: Ultrasound images from a subset of letrozole-treated (n=4-5 per group) and control (n=6) heifers were recorded throughout the duration of treatment for computer-assisted image analysis. Images were analyzed using a series of custom-developed computer algorithms optimized for ultrasonography ([…] Version 2.8© Saskatoon, Saskatchewan) on a Sun Sparc Station (Sun Microsystems, MT View, Calif.) computer. Echotexture was defined in terms of mean pixel value and pixel heterogeneity. Mean pixel values were quantified using a grey-scale ranging from 0 (black) to 255 (white). The pixel heterogeneity was the standard deviation of grey-scale values of all the pixels within the user-defined region of measurement. Spot analysis of the follicular antrum and corpus luteum, and line analysis of the peripheral antrum, follicular wall and stroma were done as previously described. For spot analyses, the follicular antrum and the CL wall were divided into four quadrants and the sampling area encompassed 75 to 80% of each quadrant. For line analyses, a straight line was drawn transversing the follicular wall from peripheral antrum to stroma and the pixel values along that line were measured in areas located within the 10 and 2 o'clock position of the follicles.
(§1) Statistical analyses were done using the Statistical Analysis System software package (SAS Learning Edition 9.1, 2006; SAS Institute Inc., Cary, N.C., USA). Time-series hormone data, plasma letrozole concentration, and follicular and luteal diameter profiles were analysed by repeated measures, using the PROC MIXED procedure. The main effects were treatment, time, and their interactions. […] Single point measurements (interwave and interovulatory intervals, interval from ovulation to onset of CL regression, mean and basal LH concentrations, LH pulse amplitude and frequency, and pharmacokinetic parameters for letrozole) were analysed by analysis of variance. […] If significant main effects or interactions (P≦0.05) were detected, Tukey's post-hoc test was used for multiple comparisons.

women = assay: Letrozole at expected time of ovulation in women; assay type: in vivo, human; details: women treated at 18 mm follicle diameter
[2] = Example II: plasma letrozole concentration during 3-day regimen (HPLC/MS); assay type: in vivo, cattle; details: for plasma letrozole concentration, overall mean: 85 μg/kg/day iv
Experimental: (§2) Four days after follicular ablation, heifers were given 500 μg of cloprostenol (PGF, Estrumate, Schering-Plough Animal Health, Pointe-Claire, QC, Canada) intramuscularly (im) to induce regression of the CL and to synchronize ovulation. The experiment was performed in two replicates (n=20-27 per replicate) and each heifer was used only once. In replicate 1, heifers were assigned randomly at the time of ovulation (Day 0) to the following groups and given a 3-day regimen of letrozole from Days 1 to 3 (n=5), Days 3 to 5 (n=5), Days 5 to 7 (n=5), or no treatment (control group, n=5). In replicate 2, heifers were similarly assigned to groups and given letrozole from Days 1 to 3, (n=5), Days 3 to 5 (n=4), or Days 5 to 7 (n=4), but untreated control heifers were arranged in three sub-groups to serve as contemporaneous controls for each letrozole-group during intensive blood sampling periods (i.e., control Days 1 to 3, n=4; control Days 3 to 5, n=4; and control Days 5 to 7, n=5). For practical purposes, the total dose of letrozole (250 μg/kg) was calculated on the basis of an average weight of 350 kg for all heifers and administered intravenously in daily divided doses over 3 days (85 μg/kg per day). For intravenous injection, letrozole was prepared in 95% ethanol to a final concentration of 5 mg/ml, resulting in an injection volume of 6 mL/day.
(§3) Blood samples were collected by jugular or coccygeal venipuncture into 10 ml heparinised, vacuum tubes (Vacutainer tubes; Becton Dickinson Vacutainer Systems, Franklin Lakes, N.J., USA). Blood samples were collected daily from pre-treatment ovulation to post-treatment ovulation. In replicate 1, additional samples were collected from letrozole-treated heifers every 12 hours from the beginning of treatment to first wave emergence. In replicate 2, heifers were sampled at 15 minute intervals for the first 8 hours after the second dose of letrozole (i.e., second day of treatment) using an indwelling jugular catheter, as described previously. Blood samples were centrifuged at 1500×g for 20 minutes, and plasma was separated and stored in plastic tubes at −20° C.
Plasma concentrations of letrozole were determined from samples collected every 12 hours from pre-treatment to one day after cessation of treatment using high performance liquid chromatographytandem mass spectrometry (HPLC/MS) as described in Chapter 4, Section 4.3.6.

plasma LH = assay: Example II: plasma LH and LH pulsatility during 3-day letrozole regimen; assay type: in vivo, cattle
Experimental: as §2, §3
Plasma LH concentrations were determined in duplicate using a double-antibody radioimmunoassay (NIDDK-bLH4). The minimum and maximum values along the standard curve were 0.06 and 8 ng/mL, respectively. The intra- and inter-assay coefficients of variation were 7.9% and 2.5%, respectively, for low reference samples (mean, 0.85 ng/mL) and 8.6% and 9.5%, respectively, for high reference samples (mean, 2.5 ng/mL).
as §1
Due to individual variability in circulating hormone concentrations among heifers, and because our objective was to determine the effect of treatment within individuals, data on LH and FSH concentrations were transformed to a percentage of the mean concentration of the two first data points collected (Days 0 and 1) for each individual heifer before analysis of variance for repeated measures. For the same reasons, estradiol concentrations were transformed to a percentage of the mean concentration of two pre-treatment data points ([…] each individual heifer before statistical analysis. […]

[3] = 85 μg/kg/day iv for 3 days, all three groups
[4] = treatment period Day 1-3, 15 min samples over 8 hours
[5] = treatment period Day 3-5, 15 min samples over 8 hours
[6] = treatment period Day 5-7, 15 min samples over 8 hours

## N#Cc1ccc(C(c2ccc(C#N)cc2)n2cncn2)cc1 [Letrozole, letrozole]
[1]; 3-day regimen, any of the three periods
  mean pixel values and heterogeneity of the dominant follicle antrum (spot analysis): not affected significantly
[1]; treated Days 1 to 3, P<0.06
  mean pixel values of the dominant follicle wall (line analysis), pre- to post-treatment: increased
[1]; treated Days 3 to 5 (printed Days 3 and 5)
  mean pixel values or heterogeneity along the follicular wall (line analysis): no effect
[1]; treated Days 5 to 7 (printed Days 5 and 7)
  mean pixel values or heterogeneity along the follicular wall (line analysis): no effect
women
  ovulation earlier than controls: 24 h
[2]; [3]
  time after initiation of treatment by which plasma letrozole was elevated: ≤ 12 h
  time by which plasma letrozole declined to approximately half peak values: ≤ 108 h
  time by which plasma letrozole reached peak levels: ≤ 60 h
[2]; Days 1 to 3
  plasma letrozole concentration, overall mean: 68.6 ± 4.79 ng/mL
[2]; Days 3 to 5
  plasma letrozole concentration, overall mean: 43.9 ± 4.75 ng/mL
[2]; Days 5 to 7
  plasma letrozole concentration, overall mean: 55.6 ± 4.75 ng/mL
[2]; 250 μg/kg, 3-day protocol
  mean circulating level of letrozole during the first 96 hours: 60.8 ± 3.36 ng/mL
[2]; female, bovine, plasma, intravenous, 85 μg/kg per day, 250 μg/kg divided in a 3-day regimen, read-out: mean concentration of letrozole in the circulation at 96 hours
  concentration at 96 hours: 51.6 ± 4.33 ng/mL
Plasma LH; 3-day regimen
  plasma LH concentrations among groups, daily samples: No significant differences
Plasma LH; AM samples collected during treatment
  plasma LH, percent of the mean of Days 0 and 1: 93.6±14.85%
Plasma LH; [4]
  Basal LH: 0.38 ± 0.11 ng/mL
  LH pulse amplitude: 0.46 ± 0.15 ng/mL
  LH pulse frequency: 0.95 pulses/h
Plasma LH; treatment period Day 1-3, 15 min samples over 8 hours after second dose
  Mean LH: 0.52 ± 0.15 ng/mL
Plasma LH; [5]
  Basal LH: 0.08 ± 0.03 ng/mL
  LH pulse amplitude: 0.40 ± 0.18 ng/mL
  LH pulse frequency: 0.53 pulses/h
  Mean LH: 0.15 ± 0.5 ng/mL
Plasma LH; [6]
  Basal LH: 0.13 ± 0.02 ng/mL
  LH pulse amplitude: 0.88 ± 0.37 ng/mL
  LH pulse frequency: 0.41 pulses/h
  Mean LH: 0.21 ± 0.04 ng/mL
